Results from patent US10703748B2, “Diazanaphthalen-3-yl carboxamides and preparation and use thereof” (Samumed, LLC, priority 2017, dated 2020).

Key:
DYRK1A kinase = DYRK1A kinase (Homo sapiens, UniProt Q13627); test: DYRK1A kinase activity (Ser/Thr 18 peptide Z-lyte FRET assay); format: biochemical; conditions: recombinant DYRK1A, 30 μM ATP, one hour at room temperature;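 further: kinase activity read as coumarin/fluorescein emission ratio after development step, with unphosphorylated and phosphorylated peptide forms setting 0% and 100% controls, values from dose-response curves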
GSK3β kinase = GSK3β kinase (Homo sapiens, UniProt P49841); test: GSK3β kinase activity (Ser/Thr 09 peptide Z-lyte FRET assay); format: biochemical; conditions: recombinant kinase, 46 μM ATP, one hour at room temperature; read-out: EC50
Sequence of GSK3β kinase (P49841 whole entry): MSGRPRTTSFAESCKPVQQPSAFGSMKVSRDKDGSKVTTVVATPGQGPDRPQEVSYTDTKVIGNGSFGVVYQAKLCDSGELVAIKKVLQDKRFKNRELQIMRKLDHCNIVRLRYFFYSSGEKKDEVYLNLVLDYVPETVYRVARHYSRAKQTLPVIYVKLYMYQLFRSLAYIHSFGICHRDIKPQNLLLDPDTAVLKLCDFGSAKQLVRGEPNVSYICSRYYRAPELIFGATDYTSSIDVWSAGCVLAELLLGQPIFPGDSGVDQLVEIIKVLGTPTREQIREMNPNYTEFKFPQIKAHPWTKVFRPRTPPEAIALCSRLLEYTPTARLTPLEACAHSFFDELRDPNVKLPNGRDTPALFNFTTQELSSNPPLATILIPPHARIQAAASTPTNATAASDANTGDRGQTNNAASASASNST
Description: Each compound is dissolved in DMSO as a 10 mM stock and used to prepare compound source plates. Serial dilution (1:3, 11-point dose-response curves from 10 μM to 0.0003 μM) and compound transfer was performed using the ECHO 550 (Labcyte, Sunnyvale, Calif.) into 1536-well black-walled round bottom plates (Corning).
This is a non-radioactive assay using fluorescence resonance energy transfer (FRET) between coumarin and fluorescein to detect kinase activity which is represented as ratio of coumarin emission/fluorescein emission.
The mixture is allowed to incubate with the representative compounds for one hour at room temperature. All reactions were performed in duplicate. Unphosphorylated (“0% Control”) and phosphorylated (“100% control”) forms of Ser/Thr 18 serve as control reactions.
After incubation, diluted Development Buffer is added to the reaction and allowed to further incubate for one hour at room temperature.
Dose-response curves are generated and inhibitory concentration (IC50) values are calculated using non-linear regression curve fit in the Dotmatics' Studies Software (Bishops Stortford, UK).

[1] = tested on: Tau phosphorylation at Ser396 (pSer396); test: Tau phosphorylation at Ser396 (pSer396) in SH-SY5Y cells, ELISA / western blot; format: cell-based, human; conditions: Homo sapiens; SH-SY5Y cells, overnight (16-18 h); read-out: pSer396 Tau EC50;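 further: decrease in pSer396 Tau measured in lysates of treated cells by colorimetric ELISA or chemiluminescent western blot, same pSer396 antibody for both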
Description: Two days before treatment, cells were seeded onto 96 well plates at 5×10^4 cells/well.
The above synthesized compounds were screened using the cell assay procedure to assess decrease Tau phosphorylation at Ser396 (pSer396) described below.
Cells were lysed with RIPA buffer complemented with phosphatase and protease inhibitors then lysates were spun down at 12,000 g for 10 min to remove any cellular debris.

[2] = tested on: secreted cytokines TNFα, IL-6 and KC-GRO; test: Secreted cytokines in Lipopolysaccharide-stimulated BV-2 cells (Table 9 does not say which cytokine); format: cell-based, mouse; conditions: Mus musculus, BV-2, 5 h; read-out: EC50
[3] = tested on: SW480 colon carcinoma cells; test: Cell viability assay (CellTiter-Glo); conditions: Homo sapiens; for EC50: SW480, 96 h; for inhibition at 10 µM: SW480, read-out: percent inhibition at 10 μM
[4] = tested on: Wnt-responsive Sp5-Luc reporter in SW480 colon carcinoma cells; test: Screening assay for Wnt activity (Sp5-Luc reporter gene assay); conditions: Homo sapiens; for EC50: SW480; for inhibition at 10 µM: SW480, read-out: percent inhibition at 10 μM
IL-6 = IL-6 inhibition in LPS-stimulated human peripheral blood mononuclear cells (HTRF); conditions: Homo sapiens, PBMC; for EC50: 22 h; for inhibition at 10 µM: read-out: percentage in parentheses after EC50 >10
[5] = tested on: α-smooth muscle actin (aSMA) positive LL29 cells; test: Inhibition of the fibrotic process: αSMA staining in TGF-β1 treated LL29 fibroblasts from IPF patients; conditions: Homo sapiens, Fibroblast; for EC50: 96 h; for inhibition at 10 µM: read-out: percentage in parentheses after EC50 >10
Description: Each compound was dissolved in DMSO as a 10 mM stock and used to prepare compound source plates. […] LL29 cells were plated at 1,500 cells/well in 70 μL/well F12 medium supplemented with 1% Fetal Bovine Serum. […] Wells treated with TGF-β1 and containing DMSO were used as positive control, and cells with only DMSO were negative control. Cells were incubated at 37° C. and 5% CO2 for 4 days. Following incubation for 4 days, SYTOX green nucleic acid stain (Life Technologies [Thermo Fisher Scientific]) was added to the wells at a final concentration of 1 μM and incubated at room temperature for 30 min. Cells were then fixed using 4% formaldehyde (Electron Microscopy Sciences), washed 3 times with PBS followed by blocking and permeabilization using 3% Bovine Serum Albumin (BSA; Sigma) and 0.3% Triton X-100 (Sigma) in PBS.

## Cn1cc(-c2ccc3cnc(NC(=O)C4CC4)cc3n2)cn1 [Compound 2, N-(2-(1-Methyl-1H-pyrazol-4-yl)-1,6-naphthyridin-7-yl) cyclopropanecarboxamide]
DYRK1A kinase
  EC50: 18 nM
GSK3β kinase
  EC50: 20 nM
[1]
  EC50: 396 nM
[2]
  EC50: 1700 nM
[3]
  EC50: 2470 nM
[4]
  EC50: 2940 nM
IL-6
  EC50: 3160 nM
[5]
  EC50: 677 nM

## Cn1cc(-c2ccc3cnc(NC(=O)[C@H]4CC[C@H](N5CCOCC5)CC4)cc3n2)cn1 [Compound 5, trans-N-(2-(1-methyl-1H-pyrazol-4-yl)-1,6-naphthyridin-7-yl)-4-morpholinocyclohexane-1-carboxamide]
DYRK1A kinase
  EC50: 7 nM
GSK3β kinase
  EC50: 138 nM
[1]
  EC50: 2000 nM
[2]
  EC50: 400 nM
[3]
  EC50: > 10000 nM
  inhibition at 10 µM: 39.9%
[4]
  EC50: > 10000 nM
  inhibition at 10 µM: 47.9%
IL-6
  EC50: 3300 nM
[5]
  EC50: > 10000 nM
  inhibition at 10 µM: 9%

## Cn1cc(-c2ccc3cnc(NC(=O)C4CCNCC4)cc3n2)cn1 [Compound 11, N-(2-(1-Methyl-1H-pyrazol-4-yl)-1,6-naphthyridin-7-yl)piperidine-4-carboxamide]
DYRK1A kinase
  EC50: 14 nM
GSK3β kinase
  EC50: 101 nM
[1]
  EC50: 3500 nM
[2]
  EC50: 926 nM
[3]
  EC50: 5800 nM
[4]
  EC50: 3190 nM
IL-6
  EC50: 2830 nM
[5]
  EC50: 2540 nM

## CC(C)CN1CCC(C(=O)Nc2cc3nc(-c4cnn(C)c4)ccc3cn2)CC1 [Compound 16, 1-Isobutyl-N-(2-(1-methyl-1H-pyrazol-4-yl)-1,6-naphthyridin-7-yl) piperidine-4-carboxamide]
DYRK1A kinase
  EC50: 40 nM
GSK3β kinase
  EC50: 277 nM
[1]
  EC50: 923 nM
[2]
  EC50: 111 nM
[3]
  EC50: > 10000 nM
  inhibition at 10 µM: 45.1%
[4]
  EC50: 1540 nM
IL-6
  EC50: > 10000 nM
  inhibition at 10 µM: 52.2%
[5]
  EC50: 251 nM

## Cn1cc(-c2ccc3cnc(NC(=O)[C@H]4CC[C@H](N)CC4)cc3n2)cn1 [Compound 41, trans-4-amino-N-(2-(1-methyl-1H-pyrazol-4-yl)-1,6-naphthyridin-7-yl)cyclohexane-1-carboxamide]
DYRK1A kinase
  EC50: 10 nM
GSK3β kinase
  EC50: 429 nM
[1]
  EC50: > 10000 nM
[2]
  EC50: 408 nM
[3]
  EC50: > 10000 nM
  inhibition at 10 µM: 31.8%
[4]
  EC50: 1310 nM
IL-6
  EC50: 2770 nM
[5]
  EC50: 663 nM

## CN(CC(=O)Nc1cc2nc(-c3cnn(C)c3)ccc2cn1)C1CCC1 [Compound 56, 2-(Cyclobutyl(methyl)amino)-N-(2-(1-methyl-1H-pyrazol-4-yl)-1,6-naphthyridin-7-yl)acetamide]
DYRK1A kinase
  EC50: 21 nM
GSK3β kinase
  EC50: 59 nM
[1]
  EC50: 1500 nM
[2]
  EC50: 1140 nM
[3]
  EC50: > 10000 nM
  inhibition at 10 µM: 35%
[4]
  EC50: 3390 nM
IL-6
  EC50: > 10000 nM
  inhibition at 10 µM: 6.3%
[5]
  EC50: 5180 nM

## Cn1cc(-c2ccc3cnc(NC(=O)[C@H]4CCCN4)cc3n2)cn1 [Compound 62, (R)—N-(2-(1-Methyl-1H-pyrazol-4-yl)-1,6-naphthyridin-7-yl)pyrrolidine-2-carboxamide]
DYRK1A kinase
  EC50: 56 nM
GSK3β kinase
  EC50: 9 nM
[1]
  EC50: 699 nM
[2]
  EC50: 557 nM
[3]
  EC50: > 10000 nM
  inhibition at 10 µM: 38.3%
[4]
  EC50: > 10000 nM
  inhibition at 10 µM: 43.1%
IL-6
  EC50: 4830 nM
[5]
  EC50: > 10000 nM
  inhibition at 10 µM: 8.3%

## Cn1cc(-c2ccc3cnc(NC(=O)C4CCN(S(C)(=O)=O)CC4)cc3n2)cn1 [Compound 71, N-(2-(1-Methyl-1H-pyrazol-4-yl)-1,6-naphthyridin-7-yl)-1-(methylsulfonyl)piperidine-4-carboxamide]
DYRK1A kinase
  EC50: 3 nM
GSK3β kinase
  EC50: 18 nM
[1]
  EC50: 426 nM
[2]
  EC50: 93 nM
[3]
  EC50: > 10000 nM
  inhibition at 10 µM: 40.7%
[4]
  EC50: 559 nM
IL-6
  EC50: 5490 nM
[5]
  EC50: 420 nM

## Cn1cc(-c2ccc3cnc(NC(=O)CC4CNCCO4)cc3n2)cn1 (stereo not drawn) [Compound 86, N-(2-(1-Methyl-1H-pyrazol-4-yl)-1,6-naphthyridin-7-yl)-2-(morpholin-2-yl)acetamide]
DYRK1A kinase
  EC50: 12 nM
GSK3β kinase
  EC50: 68 nM
[1]
  EC50: 1000 nM
[2]
  EC50: 201 nM
[3]
  EC50: 3610 nM
[4]
  EC50: 1890 nM
IL-6
  EC50: 1020 nM
[5]
  EC50: 1890 nM
